Results published in patent publication US20060135510A1 (The Trustees of the University of Pennsylvania, priority 2004, published 2006).

Experiments:
[1] = Amprenavir by pump + 8 Gy vs 8 Gy alone, right hind leg
REF = experiment: Clonogenic assay, radiation sensitization of REF cells; format: cell-based; settings: control SF2 0.408 +/− 0.040
Description: (§1) Cultures of cells in log growth phase were counted and plated in 60-mm dishes containing 4 ml of media. […] Cells were irradiated with a Mark I cesium irradiator (J. L. Shepherd, San Fernando, Calif.) at a dose rate of 1.6 Gy/min. Colonies were stained and counted 10-14 days after irradiation. A light box was used to assist in counting colonies. The surviving fraction was calculated by dividing the number of colonies formed by the number of cells plated times plating efficiency (Table 1). Each point value represents the mean surviving fraction from at least six replicate dishes.

MIAPACA2 = experiment: Clonogenic assay, radiation sensitization of MIAPACA2 cells; format: cell-based; settings: control SF2 0.906 +/− 0.086
Description: as §1

[2] = dose of about 1200 mg bid; cited from earlier work
A549 = experiment: Clonogenic assay, radiation sensitization of A549 cells; format: cell-based; settings: control SF2 0.570 +/− 0.042
Description: as §1

SQ20B xenograft tumors = experiment: In vivo to in vitro clonogenic assay in nude mice with SQ20B tumors; set-up: species or system mouse; settings: osmotic pump placed 2 days prior, 8 Gy, FIG. 11
Description: The mice in the study had SQ20B xenograft tumors on a hind leg. The pump was placed into the mouse 2 days prior to experiment. On the day of the experiment, the mouse was anesthetized and irradiated to 8 Gy. The tumor was then harvested and a cell suspension made. The cells were plated and the plating efficiency determined to indicate the number of cells that were viable and able to reproduce by forming colonies in each individual group (plating efficiency).
FIG. 8 illustrates the results of an in vivo to in vitro clonogenic assay in nude mice with SQ20B tumors.

Akt = experiment: Western blot analysis of Akt phosphorylation in SQ20B cells; format: cell-based, human
Description: Using Western blot analysis, a human head-and-neck cancer cell line, SQ20B, (American Type Culture Collection; Manassas, Va.) containing a constitutively-active EGFR receptor and thus, increased signaling through PI3K, was examined for Akt phosphorylation.
Cells were lysed without trypsinization by rinsing culture dishes once with PBS followed by lysis with reducing Laemeli sample buffer. Samples were boiled, sheared, and clarified by centrifugation and stored at −20° C. […] Membranes were blocked in PBS containing 0.1% Tween-20 and 5% powdered milk before primary antibody addition. The dilution of the primary antibody was 1:2000. Antibody binding was detected using the ECL chemiluminescence kit (Amersham, Arlington Heights, Ill.). Images were digitized using an Arcus II scanner, and figures were assembled using Adobe Photoshop 3.0 and Microsoft Power Point programs.

T24 = experiment: Clonogenic assay, radiation sensitization of T24 cells; format: cell-based, human; settings: control SF2 0.560 +/− 0.061
Description: as §1

SQ20B cells = experiment: Clonogenic assay, radiosensitization of SQ20B cells; format: cell-based, human
Description: Cultures in log growth phase were counted and plated in 60-mm dishes containing 4 ml of media. The cells were allowed to attach and inhibitors were added to cultures at least one hour prior to radiation. Cells were irradiated with a Mark I cesium irradiator (J. L. Shepherd, San Fernando, Calif.) at a dose rate of 1.6 Gy/min. Colonies were stained and counted 10-14 days after irradiation. Typically, at least 6 dishes are prepared at each dose level of radiation.
as §1

CC(C)CN(C[C@@H](O)[C@H](Cc1ccccc1)NC(=O)O[C@H]1CCOC1)S(=O)(=O)c1ccc(N)cc1 [Amprenavir, amprenavir]
leg contracture or fibrosis [1]: No differences
Amprenavir SF2 (REF): 0.402 +/− 0.136
Amprenavir SF2 (MIAPACA2): 0.664 +/− 0.051
peak plasma concentration [2]: 15.1 µM
trough plasma concentration [2]: 0.63 µM
Amprenavir SF2 (A549): 0.487 +/− 0.030
cell kill, combination of radiation and Amprenavir (SQ20B xenograft tumors): significant increase in cell kill
signaling in the Ras pathway (Akt; FIG. 4, SQ20b cells and T24 cells): inhibits
phosphorylation of Akt at Ser 473 (Akt; SQ20B cells, 10 μM Amprenavir, Western blot): down-regulation
phosphorylation of Akt at the Thr 308 site (Akt; SQ20B cells, 10 μM or 20 μM Amprenavir): no change
phosphorylation of Akt at Ser 473 (Akt; SQ20B cells, 20 μM Amprenavir, Western blot (FIG. 3 and FIG. 5)): abolished
Amprenavir SF2 (T24): 0.370 +/− 0.022
survival difference in cell kill numbers (SQ20B cells; 30 fractions of 2 Gy, SF2 0.51 vs 0.7): ~4 log
surviving fraction after 2 Gy (SF2) (SQ20B cells; SQ20B cells, 5 μM Amprenavir + 2 Gy radiation, control 70% (FIG. 6)): 51%
Amprenavir SF2 (SQ20B cells; SQ20B, control SF2 0.691 +/− 0.042): 0.432 +/− 0.017
survival value after 30 fractions of 2 Gy (SQ20B cells; calculated from SF2 0.51, without drug 2.25×10^−5): 1.68×10^−9
cell kill, combination of radiation and Amprenavir (SQ20B cells; clonogenic assay in vitro, FIG. 7): increase cell kill
